Laboratory results reported in patent US7803801B2, “Aminopyridine compounds having Syk inhibitory activity” (Japan Tobacco, Inc., priority 2005, dated 2010).
Counter-ions that a name gives are not always drawn.

Tests used:
[1] = molecular target: GST-Syk Full Protein (human) (Homo sapiens, UniProt P43405); assay: Syk kinase inhibition test (HTRF method); type: biochemical; conditions: HTRF, 100 μM ATP, 30 min room temperature, average; read-out: sykHTRF ave IC50
Summary of the method: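 HTRF read-out: after EDTA termination and 1 h with XL665-streptavidin and Eu-anti-phosphotyrosine, the 665/620 nm ratio was measured. The reaction ran 30 min at 20–25 °C with final 6.4 nM human GST-Syk, 250 nM biotinylated peptide, 100 μM ATP, pH 7.0 HEPES buffer, 2% DMSO.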

[2] = system: cultured human mast cells; assay: Degranulation inhibition test using cultured human mast cells (IgE cross-linking, β-Hexosaminidase release); type: cell-based; conditions: Mast cell; cultured human mast cells, anti-hIgE stimulation, β-Hexosaminidase index, average; read-out: human degranulation ave. IC50
Summary of the method: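 Degranulation was triggered by anti-hIgE (10 μg/mL final, 30 min, 37 °C) after a 10-min compound pretreatment (DMSO 0.1%) of cord-blood CD34+-derived mast cells primed 5 days with IL-4 and IgE. β-Hexosaminidase in supernatant was measured with p-nitrophenyl-GlcNAc substrate (A405), expressed against water-lysed total; IC50 (M).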

SMILES | IC50 [1] [µM] | IC50 [2] [µM]
Cc1ccnc(Nc2cccc(-c3cnc([C@H]4CC[C@H](C(=O)N5CCC[C@H]5CO)CC4)s3)n2)c1 [Compound A-285] | 0.1 to 1 | 0.1 to 1
Cc1ccnc(Nc2cccc(-c3cnc([C@H]4CC[C@H](C(=O)N5CCC[C@@H]5CO)CC4)s3)n2)c1 [Compound A-286, ((R)-2-hydroxymethylpyrrolidin-1-yl)-(trans-4-{5-[6-(4-methylpyridin-2-ylamino)pyridin-2-yl]thiazol-2-yl}cyclohexyl)metanone] | < 0.1 | 0.1 to 1
Cc1ccnc(Nc2cccc(-c3cnc([C@H]4CC[C@H](C(=O)N5CCC(N(C)C)C5)CC4)s3)n2)c1 (stereo partly shown) [Compound A-287] | 0.1 to 1 | 0.1 to 1
Cc1ccnc(Nc2cccc(-c3cnc(CNCc4ccc(C(=O)O)cc4)s3)n2)c1 [Compound A-288] | 0.1 to 1 | > 1
CC(=O)N1CCN(C(=O)[C@H]2CC[C@H](c3ncc(-c4cccc(Nc5cc(C)ccn5)n4)s3)CC2)CC1 [Compound A-289] | 0.1 to 1 | > 1
Cc1ccnc(Nc2cccc(-c3cnc([C@H]4CC[C@H](C(=O)N5CCC(N)CC5)CC4)s3)n2)c1 [Compound A-290, (4-aminopiperidin-1-yl)-(trans-4-{5-[6-(4-methylpyridin-2-ylamino)pyridin-2-yl]thiazol-2-yl}cyclohexyl)methanone] | < 0.1 | > 1
COc1ccnc(Nc2cccc(-c3cnc([C@H]4CC[C@H](C(=O)N5CCC(O)CC5)CC4)s3)n2)c1 [Compound A-291] | 0.1 to 1 | 0.1 to 1
Cc1ccnc(Nc2cccc(-c3cnc(C4CCN(C(=O)C5CCNCC5)CC4)s3)n2)c1 [Compound A-292] | 0.1 to 1 | > 1
Cc1ccnc(Nc2cccc(-c3cnc(CCC4CCN(C(=O)C5CCC(=O)CC5)CC4)s3)n2)c1 [Compound A-293] | 0.1 to 1 | > 1
Cc1ccnc(Nc2cccc(-c3cnc(CCC4CCN(C(=O)C5CCC(O)CC5)CC4)s3)n2)c1 (stereo not shown) [Compound A-294] | 0.1 to 1 | > 1
Cc1ccnc(Nc2cccc(-c3cnc(CCC4CCN(C(=O)C5CCNCC5)CC4)s3)n2)c1 [Compound A-295, [4-(2-{5-[6-(4-methylpyridin-2-ylamino)pyridin-2-yl]thiazol-2-yl}ethyl)piperidin-1-yl]-(piperidin-4-yl)metanone] | < 0.1 | > 1
Cc1ccnc(Nc2cccc(-c3cnc([C@H]4CC[C@H](CN5CCC(O)CC5)CC4)s3)n2)c1 [Compound A-296] | 0.1 to 1 | > 1
O=C([C@H]1CC[C@H](c2ncc(-c3cccc(Nc4cc(Cl)ccn4)n3)s2)CC1)N1CCC(O)CC1 [Compound A-297, (trans-4-{5-[6-(4-chloropyridin-2-ylamino)pyridin-2-yl]thiazol-2-yl}cyclohexyl)-(4-hydroxypiperidin-1-yl)metanone] | < 0.1 | 0.1 to 1
Cc1ccnc(Nc2cccc(-c3cnc([C@H]4CC[C@H](C(=O)NN5CCC(O)CC5)CC4)s3)n2)c1 [Compound A-298, N-(4-hydroxypiperidin-1-yl)-trans-4-{5-[6-(4-methylpyridin-2-ylamino)pyridin-2-yl]thiazol-2-yl}cyclohexanecarboxamide] | < 0.1 | 0.1 to 1
Cc1ccnc(Nc2cccc(-c3cnc([C@H]4CC[C@H](C(=O)N5CCN(C)CC5)CC4)s3)n2)c1 [Compound A-300] | 0.1 to 1 | 0.1 to 1
Cc1ccnc(Nc2cccc(-c3cnc(CCC4CCN(C(=O)c5ccncc5)CC4)s3)n2)c1 [Compound A-301] | 0.1 to 1 | 0.1 to 1
Cc1ccnc(Nc2cccc(-c3cnc([C@H]4CC[C@H](C(=O)N(CCO)CCO)CC4)s3)n2)c1 [Compound A-302] | 0.1 to 1 | 0.1 to 1
Cc1ccnc(Nc2cccc(-c3cnc([C@H]4CC[C@H](C(=O)N[C@@H](CO)Cc5cnc[nH]5)CC4)s3)n2)c1 [Compound A-303, N—[(R)-2-hydroxy-1-(3H-imidazol-4-ylmethyl)ethyl]-trans-4-{5-[6-(4-methylpyridin-2-ylamino)pyridin-2-yl]thiazol-2-yl}cyclohexanecarboxamide] | < 0.1 | > 1
Cc1ccnc(Nc2cccc(-c3cnc([C@H]4CC[C@H](C(=O)N[C@H](CO)Cc5cnc[nH]5)CC4)s3)n2)c1 [Compound A-304, N—[(S)-2-hydroxy-1-(3H-imidazol-4-ylmethyl)ethyl]-trans-4-{5-[6-(4-methylpyridin-2-ylamino)pyridin-2-yl]thiazol-2-yl}cyclohexanecarboxamide] | < 0.1 | > 1

SMILES | IC50 [1] [µM] | IC50 [2] [µM]
Cc1ccnc(Nc2cccc(-c3cnc([C@H]4CC[C@H](C(=O)N[C@H]5CC[C@H](O)CC5)CC4)s3)n2)c1 [Compound A-305] | 0.1 to 1 | 0.1 to 1
Cc1ccnc(Nc2cccc(-c3cnc(C4CCN(C(=O)c5ccncc5)CC4)s3)n2)c1 [Compound A-306] | 0.1 to 1 | 0.1 to 1
O=C([C@H]1CC[C@H](c2ncc(-c3cccc(Nc4cc5ccccc5cn4)n3)s2)CC1)N1CCC(O)CC1 [Compound A-307] | 0.1 to 1 | 0.1 to 1
COC(=O)NCCc1ncc(-c2cccc(Nc3cc(C)ccn3)n2)s1 [Compound A-308] | 0.1 to 1 | 0.1 to 1
Cc1ccnc(Nc2cccc(-c3cnc([C@H]4CC[C@H](C(=O)NCCN(C)C)CC4)s3)n2)c1 [Compound A-309, N-(2-dimethylaminoethyl)-trans-4-{5-[6-(4-methylpyridin-2-ylamino)pyridin-2-yl]thiazol-2-yl}cyclohexanecarboxamide] | < 0.1 | 0.1 to 1
Cc1ccnc(Nc2cccc(-c3cnc([C@H]4CC[C@H](C(=O)NC5(CO)CCCC5)CC4)s3)n2)c1 [Compound A-310] | 0.1 to 1 | > 1
Cc1ccnc(Nc2cccc(-c3cnc([C@H]4CC[C@H](C(=O)N5CCC(N)C5)CC4)s3)n2)c1 (stereo partly drawn) [Compound A-311, (3-aminopyrrolidin-1-yl)-(trans-4-{5-[6-(4-methylpyridin-2-ylamino)pyridin-2-yl]thiazol-2-yl}cyclohexyl)methanone trihydrochloride] | < 0.1 | 0.1 to 1
Cc1ccnc(Nc2cccc(-c3cnc([C@H]4CC[C@H](C(=O)N5CCC(NS(C)(=O)=O)C5)CC4)s3)n2)c1 (stereo partly drawn) [Compound A-312, N-[1-(trans-4-{5-[6-(4-methylpyridin-2-ylamino)pyridin-2-yl]thiazol-2-yl]cyclohexanecarbonyl)pyrrolidin-3-yl}methanesulfonamide] | < 0.1 | 0.1 to 1
Cc1ccnc(Nc2cccc(-c3cnc([C@H]4CC[C@H](C(=O)N5CCC(NC(=O)CO)C5)CC4)s3)n2)c1 (stereo partly shown) [Compound A-313] | 0.1 to 1 | 0.1 to 1
Cc1ccnc(Nc2cccc(-c3cnc([C@H]4CC[C@H](CN5C[C@@H](O)[C@@H](O)C5)CC4)s3)n2)c1 [Compound A-314, (3R,4S)-1-(trans-4-{5-[6-(4-methylpyridin-2-ylamino)pyridin-2-yl]thiazol-2-yl}cyclohexylmethyl)pyrrolidin-3,4-diol] | < 0.1 | > 1
Cc1ccnc(Nc2cccc(-c3cnc([C@H]4CC[C@H](CN5CCCC(O)C5)CC4)s3)n2)c1 (stereo partly shown) [Compound A-315] | 0.1 to 1 | > 1
Cc1ccnc(Nc2cccc(-c3cnc([C@H]4CC[C@H](C#N)CC4)s3)n2)c1 [Compound A-316, trans-4-{5-[6-(4-methylpyridin-2-ylamino)pyridin-2-yl]thiazol-2-yl}cyclohexanecarbonitrile] | < 0.1 | 0.1 to 1
Cc1ccnc(Nc2cccc(-c3cnc([C@H]4CC[C@@H](C#N)CC4)s3)n2)c1 [Compound A-317, cis-4-{5-[6-(4-methylpyridin-2-ylamino)pyridin-2-yl]thiazol-2-yl}cyclohexanecarbonitrile] | < 0.1 | 0.1 to 1
CC(=O)O[C@@H](c1ccccc1)c1ncc(-c2cccc(Nc3cc(C)ccn3)n2)s1 [Compound A-318] | 0.1 to 1 | > 1
COc1ccnc(Nc2cccc(-c3cnc([C@@H]4CCC(=O)N4)s3)n2)c1 [Compound A-319, (S)-5-{5-[6-(4-methoxypyridin-2-ylamino)pyridin-2-yl]thiazol-2-yl}pyrrolidin-2-one] | < 0.1 | 0.1 to 1
COc1ccnc(Nc2cccc(-c3cnc([C@H](C)O)s3)n2)c1 [Compound A-320, (S)-1-{5-[6-(4-methoxypyridin-2-ylamino)pyridin-2-yl]thiazol-2-yl}ethanol] | < 0.1 | < 0.1
C[C@H](O)c1ncc(-c2cccc(Nc3cc(CCO)ccn3)n2)s1 [Compound A-321, (S)-1-(5-{6-[4-(2-hydroxyethyl)pyridin-2-ylamino]pyridin-2-yl}thiazol-2-yl)ethanol] | < 0.1 | < 0.1
C[C@H](O)c1ncc(-c2cccc(Nc3cc(Cl)ccn3)n2)s1 [Compound A-322, (S)-1-{5-[6-(4-chloropyridin-2-ylamino)pyridin-2-yl]thiazol-2-yl}ethanol] | < 0.1 | < 0.1
O=C1CC[C@@H](c2ncc(-c3cccc(Nc4cc(Cl)ccn4)n3)s2)N1 [Compound A-323, (S)-5-{5-[6-(4-chloropyridin-2-ylamino)pyridin-2-yl]thiazol-2-yl}pyrrolidin-2-one] | < 0.1 | < 0.1
